Assay results: article PMC10876487 (Synthetic and Systems Biotechnology, 2024)

Molecular target: T1, ALDH-40 (Bacillus subtilis, UniProt P94358)
T1 sequence (P94358 1-485): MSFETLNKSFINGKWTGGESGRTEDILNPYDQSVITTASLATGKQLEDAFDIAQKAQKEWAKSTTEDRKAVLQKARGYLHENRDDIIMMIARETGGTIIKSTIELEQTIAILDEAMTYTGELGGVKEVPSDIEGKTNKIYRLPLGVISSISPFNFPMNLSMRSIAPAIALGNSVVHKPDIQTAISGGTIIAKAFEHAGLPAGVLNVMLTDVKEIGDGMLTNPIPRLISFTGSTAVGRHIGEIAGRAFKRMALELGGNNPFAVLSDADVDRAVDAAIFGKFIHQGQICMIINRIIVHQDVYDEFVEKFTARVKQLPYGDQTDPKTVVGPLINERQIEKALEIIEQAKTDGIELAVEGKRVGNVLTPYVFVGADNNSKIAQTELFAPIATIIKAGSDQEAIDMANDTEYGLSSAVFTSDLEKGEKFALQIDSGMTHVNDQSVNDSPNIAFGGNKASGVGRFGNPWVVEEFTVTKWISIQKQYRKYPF
Assay: HPLC, Michaelis-Menten fit
Assay type: biochemical
Settings: 0.5 μM enzyme, NAD+ 2 mM, 50 mM Tris-HCl pH 8.0, 30 °C

cinnamaldehyde [2a]
Km: 10 ± 2.7 mM
